In patent US11974976B2, “Animal feeds and feed premixes containing betaine hydrochloride and a phytase” (Rural Chemical Industries (AUST) PTY LTD, priority 2013, dated 2024):
Where a name gives a salt, the structure may show the parent alone. Marks after values point to notes of the source that are not given here.

Key:
male Ross 308 chicks [1] = assay: Carcass traits (breast weight, breast meat yield, abdominal fat pad weight); assay type: in vivo, broiler chicks; conditions: for Breast weight: bone-in; for Breast weight / Breast meat yield / Fat pad weight: phytase 500 FTU/kg, betaine 2.75 g/kg
Procedure: (§1) The composition and nutrient specifications of the three basal starter (1-16 days post-hatch) and finisher (17-37 days post-hatch) diets are shown in Table 1. An NSP-degrading enzyme (Econase XT) was included across all the wheat-based diets to reflect standard practice and the finisher diets contained 20 g/kg Celite as an acid insoluble ash dietary marker. The starter diets were fed as mash, while the finisher diets were steam-pelleted at a conditioning temperature of 85° C. The NC1 diets were the ‘phytase-modified’ diets with formulated with reductions of 1.4 g/kg Ca and 1.5 g/kg P in the starter diets, which mainly stemmed from the elimination of dicalcium phosphate. The corresponding reductions in the finisher diets were 1.2 g/kg Ca and 1.4/kg P. The NC2 diets were the ‘betaine-modified’ diets in which energy density, methionine and choline levels were reduced mainly by lower inclusion levels of canola oil and synthetic methionine and the elimination of choline chloride relative to the PC diets. The energy densities were reduced from 12.55 to 12.24 MJ/kg in the starter diets and from 12.97 to 12.66 MJ/kg in the finisher diets. Methionine levels were reduced from 4.44 to 3.19 g/kg in the starter diets and from 4.18 to 2.93 g/kg in the finisher diets. Exogenous phytase (Quantum® Blue; AB Vista) was included in the relevant diets at 100 g per tonne or 500 FTU/kg phytase activity and, similarly, betaine HCl (Hi Beta″, 970 g/kg betaine hydrochloride; Rural Chemical Industries) was included in the diets at 2.75 g/kg.
(§2) The parameters evaluated included growth performance (weight gains, feed intakes, feed conversion ratios; FCR) from 1 to 16, 17 to 37 and 1 to 37 days post-hatch, 1 to 37 days weight gain-corrected FCR, mortality/cull rates, percentage toe ash, nitrogen (N) excretion and nutrient utilisation. Nutrient utilisation included apparent metabolisable energy (AME), expressed as both MJ/kg and MJ/day, N retention and N-corrected AME (AMEn). Also, breast weights in absolute and relative (% yield) terms, abdominal fat pad weights and pH of gizzard contents were determined. However, for reasons of practical expediency, absolute breast weights were determined on a ‘bone-in’ basis from birds that had not been de-feathered and this approach inflates both the absolute weight and yield; nevertheless, the data remains indicative. The experimental data was obtained and calculated via standard procedures followed by the Poultry Research Foundation. While the various procedures are not detailed in this report the majority of them have been described in detail (Selle et al., 2003b) previously.
(§3) The experimental data was statistically analysed as a 3×2×2 factorial array of dietary treatments. That is diet type (PC, NC1, NC2), without and with the addition of phytase, without and with the addition of betaine HCl. Each of the 12 dietary treatments was offered to 8 replicate cages of 6 birds or a total of 96 cages and 576 birds (male Ross 308 chicks). The IBM® SPSS® Statistics 20 program was used to analyse experimental data and the study complied with specific guidelines of the Animal Ethics Committee of Sydney University.

male Ross 308 chicks [2] = assay: Mortality/cull rates to 37 days post-hatch; conditions: phytase 500 FTU/kg, betaine 2.75 g/kg
Procedure: as §1, §2
The experimental data was statistically analysed as a 3×2×2 factorial array of dietary treatments. […]

male Ross 308 chicks [3] = assay: Growth performance of broilers (weight gain, feed intake, feed conversion); assay type: in vivo, broiler chicks; conditions: for Feed efficiency: feed conversion ratio; for Feed efficiency / Feed intake / Weight gain / Gain-corrected FCR: phytase 500 FTU/kg, betaine 2.75 g/kg
Procedure: as §1, §2, §3

[4] = main effect across diets, hydrochloride
[5] = main effect across diets, listed as betaine HCl, hydrochloride
[6] = NC1 diets, 1 to 16 days post-hatch
[7] = NC1 diets, 1 to 37 days post-hatch
[8] = NC1 diets, 17 to 37 days post-hatch
[9] = NC2 diets, 1 to 16 days post-hatch
[10] = NC2 diets, 1 to 37 days post-hatch
[11] = NC2 diets, 17 to 37 days post-hatch
[12] = PC diets, 1 to 16 days post-hatch
[13] = PC diets, 1 to 37 days post-hatch
[14] = PC diets, 17 to 37 days post-hatch
[15] = main effect across diets, 1 to 16 days post-hatch
[16] = main effect across diets, 1 to 37 days post-hatch
[17] = main effect across diets, 17 to 37 days post-hatch
[18] = main effect, 17 to 37 days (finisher phase)

## C[N+](C)(C)CC(=O)O [Betaine, betaine hydrochloride]
Male Ross 308 chicks [1]; NC1 diets
  Breast weight: 526 g/bird
  Breast meat yield: 25.7%
  Fat pad weight: 14.7 g/bird
Male Ross 308 chicks [1]; NC2 diets
  Breast weight: 625 g/bird
  Breast meat yield: 26.9%
  Fat pad weight: 18.4 g/bird
Male Ross 308 chicks [1]; PC diets
  Breast weight: 660 g/bird
  Breast meat yield: 28.3%
  Fat pad weight: 17.3 g/bird
Male Ross 308 chicks [1]; across diet types
  Breast meat yield, phytase x betaine interaction mean: 27.0%
  Fat pad weight, phytase x betaine interaction mean: 16.8 g/bird
Male Ross 308 chicks [1]; in the absence of phytase
  Decrease in fat pad weights by betaine HCl: 17.6%
Male Ross 308 chicks [1]; in the presence of phytase
  Increase in fat pad weights by betaine HCl: 8.67%
Male Ross 308 chicks [1]; main effect
  Increase in breast meat yield (relative): 1.91%
  Increase in breast yield: 0.5 percentage units
Male Ross 308 chicks [1]; [4]
  Breast weight: 624 g/bird
  Breast meat yield: 26.7^b %
  Fat pad weight: 19.1 g/bird
Male Ross 308 chicks [1]; main effect across diets, listed as betaine, hydrochloride
  Breast weight: no influence
Male Ross 308 chicks [1]; main effect across diets, listed as Betaine HCl, hydrochloride
  Breast meat yield: 26.7%
Male Ross 308 chicks [1]; [5]
  Breast meat yield: 26.7%
  Fat pad weight: no effect
Male Ross 308 chicks [2]; NC1 diets
  Mortality and cull rates: 4.18%
Male Ross 308 chicks [2]; NC2 diets
  Mortality and cull rates: 6.25%
Male Ross 308 chicks [2]; PC diets
  Mortality and cull rates: 4.18%
Male Ross 308 chicks [2]; main effect across diets
  Mortality and cull rates: 4.17%
Male Ross 308 chicks [3]; 1 to 37 days, across diet types
  Weight gain, phytase x betaine interaction mean: 2202 g/bird
Male Ross 308 chicks [3]; 17 to 37 days, across diet types
  Weight gain, phytase x betaine interaction mean: 1797 g/bird
Male Ross 308 chicks [3]; 17 to 37 days, betaine HCl alone, across diet types
  Depression of weight gain versus non-supplemented diets: 7.70%
Male Ross 308 chicks [3]; [6]
  Feed efficiency: 1.414
  Feed intake: 556 g/bird
  Weight gain: 395 g/bird
Male Ross 308 chicks [3]; NC1 diets, 1 to 37 days
  Weight gain, two-way interaction mean (diet type x additive): 2437 g/bird
  Gain-corrected FCR: 1.858 g/g
Male Ross 308 chicks [3]; [7]
  Feed efficiency: 1.732
  Feed intake: 3478 g/bird
  Weight gain: 2012 g/bird
Male Ross 308 chicks [3]; NC1 diets, 1 to 37 days, two-way interaction
  Increase in weight gain on addition to diet: 0.61%
Male Ross 308 chicks [3]; NC1 diets, 17 to 37 days
  Weight gain, two-way interaction mean (diet type x additive): 1737 g/bird
Male Ross 308 chicks [3]; [8]
  Feed efficiency: 1.811
  Feed intake: 2923 g/bird
  Weight gain: 1618 g/bird
Male Ross 308 chicks [3]; [9]
  Feed efficiency: 1.394
  Feed intake: 523 g/bird
  Weight gain: 377 g/bird
Male Ross 308 chicks [3]; [10]
  Feed efficiency: 1.641
  Feed intake: 3728 g/bird
  Weight gain: 2272 g/bird
Male Ross 308 chicks [3]; NC2 diets, 1 to 37 days
  Gain-corrected FCR: 1.663 g/g
Male Ross 308 chicks [3]; NC2 diets, 1 to 37 days, two-way interaction
  Depression of weight gain on addition to diet: 5.29%
Male Ross 308 chicks [3]; [11]
  Feed efficiency: 1.691
  Feed intake: 3205 g/bird
  Weight gain: 1896 g/bird
Male Ross 308 chicks [3]; NC2 diets, 17 to 37 days, two-way interaction
  Depression of weight gain on addition to diet: 6.27%
Male Ross 308 chicks [3]; [12]
  Feed efficiency: 1.334
  Feed intake: 591 g/bird
  Weight gain: 444 g/bird
Male Ross 308 chicks [3]; [13]
  Feed efficiency: 1.601
  Feed intake: 3714 g/bird
  Weight gain: 2321 g/bird
Male Ross 308 chicks [3]; PC diets, 1 to 37 days
  Gain-corrected FCR: 1.604 g/g
Male Ross 308 chicks [3]; PC diets, 1 to 37 days, two-way interaction
  Depression of weight gain on addition to diet: 4.90%
Male Ross 308 chicks [3]; [14]
  Feed efficiency: 1.665
  Feed intake: 3123 g/bird
  Weight gain: 1878 g/bird
Male Ross 308 chicks [3]; PC diets, 17 to 37 days, two-way interaction
  Depression of weight gain on addition to diet: 6.35%
Male Ross 308 chicks [3]; main effect across diets, 1 to 16 days post-hatch, hydrochloride
  Feed efficiency: 1.380^b
Male Ross 308 chicks [3]; main effect across diets, 1 to 16 days post-hatch, listed as Betaine HCl, hydrochloride
  Feed efficiency: 1.380
Male Ross 308 chicks [3]; [15]
  Feed intake: 567 g/bird
  Weight gain: 413 g/bird
Male Ross 308 chicks [3]; main effect across diets, 1 to 37 days post-hatch, hydrochloride
  Feed efficiency: 1.647
Male Ross 308 chicks [3]; main effect across diets, 1 to 37 days post-hatch, listed as betaine HCl, hydrochloride
  Feed efficiency: no significant impact
Male Ross 308 chicks [3]; [16]
  Feed intake: 3756 g/bird
  Weight gain: 2288 g/bird
Male Ross 308 chicks [3]; main effect across diets, 1 to 37 days, hydrochloride
  Gain-corrected FCR: 1.663^a g/g
Male Ross 308 chicks [3]; main effect across diets, 1 to 37 days, listed as betaine HCl, hydrochloride
  Gain-corrected FCR: 1.663 g/g
Male Ross 308 chicks [3]; main effect across diets, 17 to 37 days post-hatch, hydrochloride
  Feed efficiency: 1.707^b
Male Ross 308 chicks [3]; main effect across diets, 17 to 37 days post-hatch, listed as betaine HCl, hydrochloride
  Feed efficiency: 1.707
Male Ross 308 chicks [3]; [17]
  Feed intake: 3189 g/bird
  Weight gain: 1875^a g/bird
Male Ross 308 chicks [3]; main effect, 1 to 37 days
  Depression of gain-corrected FCR: 3.42%
Male Ross 308 chicks [3]; [18]
  Depression of feed efficiency: 2.46%
  Depression of weight gain: 4.48%
Male Ross 308 chicks [3]; main effect, entire feeding period
  Depression of growth rates: 3.38%
Male Ross 308 chicks [3]; main effect, starter phase, 1 to 16 days post-hatch
  Improvement in feed efficiency (FCR): 3.77%
